Legend:
redroot pigweed [1] = experiment: Test Example 5: herbicidal effect by foliage application, plastic box (Table 20, symbol N); format: in vivo, redroot pigweed (Amaranthus retroflexus); details: amount of applied herbicide 320 g/ha; foliage application after 14-day growth; evaluated three weeks after application
Outline: (§1)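 Sow seeds spot-wise in sterilized diluvial soil; cover with ~1.5 cm soil. Grow 14 days in greenhouse, 25° C. to 30° C. Spray foliage with emulsion diluted to predetermined amount. Rate effect after 3 weeks.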

wild oat [2] = experiment: Test Example 4: herbicidal effect by soil treatment (Table 19, symbol I); format: in vivo, wild oat (Avena fatua); details: amount of applied herbicide 320 g/ha
Outline: (§2)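 Soil-surface application: an emulsion agent diluted with water to the predetermined dose is sprayed uniformly over seeds lying under roughly 1.5 cm of sterilized diluvial soil. Boxes stay in a greenhouse at 25° C. to 30° C. Three weeks later, each species is graded on previously defined criteria.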

velvetleaf [3] = experiment: Test Example 5: herbicidal effect by foliage application, plastic box (Table 20, symbol M); format: in vivo, velvetleaf (Abutilon theophrasti); details: amount of applied herbicide 320 g/ha; foliage application after 14-day growth; evaluated three weeks after application
Outline: as §1

rice flat sedge = experiment: Test Example 3: herbicidal effect by foliage application, Wagner pot (Table 18, symbol E); format: in vivo, rice flat sedge (Cyperus iria); details: 320 g/ha
Outline: (§3)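 Plants were sown in alluvial soil held under 0.1–0.5 cm standing water and grown 14 days in a greenhouse at 25–30 °C. An emulsifiable formulation, water-diluted to the set dose, was then sprayed onto the foliage, and effects were scored three weeks later using previously defined criteria.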

blackgrass [4] = experiment: Test Example 5: herbicidal effect by foliage application, plastic box (Table 20, symbol J); format: in vivo, blackgrass (Alopecurus myosuroides); details: amount of applied herbicide 320 g/ha; foliage application after 14-day growth; evaluated three weeks after application
Outline: as §1

persian speedwell [5] = experiment: Test Example 5: herbicidal effect by foliage application, plastic box (Table 20, symbol R); format: in vivo, Persian speedwell (Veronica persica); details: amount of applied herbicide 320 g/ha; foliage application after 14-day growth; evaluated three weeks after application
Outline: as §1

green foxtail [6] = experiment: Test Example 5: herbicidal effect by foliage application, plastic box (Table 20, symbol G); format: in vivo, green foxtail (Setaria viridis); details: amount of applied herbicide 320 g/ha; foliage application after 14-day growth; evaluated three weeks after application
Outline: as §1

barnyard grass [7] = experiment: Test Example 3: herbicidal effect by foliage application, Wagner pot (Table 18, symbol H); format: in vivo, barnyard grass (Echinochloa crus-galli); details: 320 g/ha
Outline: as §3

windgrass [8] = experiment: Test Example 5: herbicidal effect by foliage application, plastic box (Table 20, symbol L); format: in vivo, windgrass (Apera spica-venti); details: amount of applied herbicide 320 g/ha; foliage application after 14-day growth; evaluated three weeks after application
Outline: as §1

velvetleaf [9] = experiment: Test Example 4: herbicidal effect by soil treatment (Table 19, symbol M); format: in vivo, velvetleaf (Abutilon theophrasti); details: amount of applied herbicide 320 g/ha
Outline: as §2

chickweed [10] = experiment: Test Example 5: herbicidal effect by foliage application, plastic box (Table 20, symbol P); format: in vivo, common chickweed (Stellaria media); details: amount of applied herbicide 320 g/ha; foliage application after 14-day growth; evaluated three weeks after application
Outline: as §1

lambsquarters [11] = experiment: Test Example 4: herbicidal effect by soil treatment (Table 19, symbol O); format: in vivo, lambsquarters (Chenopodium album); details: amount of applied herbicide 320 g/ha
Outline: as §2

oval-leafed pondweed = experiment: Test Example 1: herbicidal activity, application before weed generation under submerged conditions (Table 16, symbol C); format: in vivo, oval-leafed pondweed (Monochoria vaginalis); details: amount of applied herbicide 320 g/ha
Outline: (§4)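 Emulsion formulation, water-diluted to set dose, was put onto the flooded surface (4 cm depth, alluvial soil) the same day weeds were sown and 2.5-leaf rice transplanted. After 3 weeks at 25-30 °C under glass, each species was rated 0 (≤5% kill) to 5 (≥90% kill).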

Japanese bulrush = experiment: Test Example 1: herbicidal activity, application before weed generation under submerged conditions (Table 16, symbol B); format: in vivo, Japanese bulrush (Schoenoplectus juncoides); details: amount of applied herbicide 320 g/ha
Outline: as §4

blackgrass [12] = experiment: Test Example 4: herbicidal effect by soil treatment (Table 19, symbol J); format: in vivo, blackgrass (Alopecurus myosuroides); details: amount of applied herbicide 320 g/ha
Outline: as §2

wild oat [13] = experiment: Test Example 5: herbicidal effect by foliage application, plastic box (Table 20, symbol I); format: in vivo, wild oat (Avena fatua); details: amount of applied herbicide 320 g/ha; foliage application after 14-day growth; evaluated three weeks after application
Outline: as §1

persian speedwell [14] = experiment: Test Example 4: herbicidal effect by soil treatment (Table 19, symbol R); format: in vivo, Persian speedwell (Veronica persica); details: amount of applied herbicide 320 g/ha
Outline: as §2

green foxtail [15] = experiment: Test Example 4: herbicidal effect by soil treatment (Table 19, symbol G); format: in vivo, green foxtail (Setaria viridis); details: amount of applied herbicide 320 g/ha
Outline: as §2

barnyard grass [16] = experiment: Test Example 4: herbicidal effect by soil treatment (Table 19, symbol H); format: in vivo, barnyard grass (Echinochloa crus-galli); details: amount of applied herbicide 320 g/ha
Outline: as §2

Italian ryegrass [17] = experiment: Test Example 4: herbicidal effect by soil treatment (Table 19, symbol K); format: in vivo, Italian ryegrass (Lolium multiflorum); details: amount of applied herbicide 320 g/ha
Outline: as §2

Chinese sprangletop = experiment: Test Example 3: herbicidal effect by foliage application, Wagner pot (Table 18, symbol D); format: in vivo, chinese sprangletop (Leptochloa chinensis); details: 320 g/ha
Outline: as §3

false cleavers = experiment: Test Example 5: herbicidal effect by foliage application, plastic box (Table 20, symbol Q); format: in vivo, false cleavers (Galium spurium); details: amount of applied herbicide 320 g/ha; foliage application after 14-day growth; evaluated three weeks after application
Outline: as §1

redroot pigweed [18] = experiment: Test Example 4: herbicidal effect by soil treatment (Table 19, symbol N); format: in vivo, redroot pigweed (Amaranthus retroflexus); details: amount of applied herbicide 320 g/ha
Outline: as §2

chickweed [19] = experiment: Test Example 4: herbicidal effect by soil treatment (Table 19, symbol P); format: in vivo, common chickweed (Stellaria media); details: amount of applied herbicide 320 g/ha
Outline: as §2

late watergrass = experiment: Test Example 1: herbicidal activity, application before weed generation under submerged conditions (Table 16, symbol A); format: in vivo, late watergrass (Echinochloa oryzicola); details: amount of applied herbicide 320 g/ha
Outline: as §4

southern crabgrass [20] = experiment: Test Example 4: herbicidal effect by soil treatment (Table 19, symbol F); format: in vivo, southern crabgrass (Digitaria ciliaris); details: amount of applied herbicide 320 g/ha
Outline: as §2

lambsquarters [21] = experiment: Test Example 5: herbicidal effect by foliage application, plastic box (Table 20, symbol O); format: in vivo, lambsquarters (Chenopodium album); details: amount of applied herbicide 320 g/ha; foliage application after 14-day growth; evaluated three weeks after application
Outline: as §1

barnyard grass [22] = experiment: Test Example 5: herbicidal effect by foliage application, plastic box (Table 20, symbol H); format: in vivo, barnyard grass (Echinochloa crus-galli); details: amount of applied herbicide 320 g/ha; foliage application after 14-day growth; evaluated three weeks after application
Outline: as §1

southern crabgrass [23] = experiment: Test Example 5: herbicidal effect by foliage application, plastic box (Table 20, symbol F); format: in vivo, southern crabgrass (Digitaria ciliaris); details: amount of applied herbicide 320 g/ha; foliage application after 14-day growth; evaluated three weeks after application
Outline: as §1

windgrass [24] = experiment: Test Example 4: herbicidal effect by soil treatment (Table 19, symbol L); format: in vivo, windgrass (Apera spica-venti); details: amount of applied herbicide 320 g/ha
Outline: as §2

Italian ryegrass [25] = experiment: Test Example 5: herbicidal effect by foliage application, plastic box (Table 20, symbol K); format: in vivo, Italian ryegrass (Lolium multiflorum); details: amount of applied herbicide 320 g/ha; foliage application after 14-day growth; evaluated three weeks after application
Outline: as §1

| Compound | Herbicidal effect by foliage application, N: redroot pigweed (redroot pigweed [1]) | I: wild oat, herbicidal effect grade (wild oat [2]) | Herbicidal effect by foliage application, M: velvetleaf (velvetleaf [3]) | herbicidal effect on rice flat sedge (E) (rice flat sedge) | Herbicidal effect by foliage application, J: blackgrass (blackgrass [4]) | Herbicidal effect by foliage application, R: persian speedwell (persian speedwell [5]) | Herbicidal effect by foliage application, G: green foxtail (green foxtail [6]) | herbicidal effect on barnyard grass (H) (barnyard grass [7]) | Herbicidal effect by foliage application, L: windgrass (windgrass [8]) | M: velvetleaf, herbicidal effect grade (velvetleaf [9]) | Herbicidal effect by foliage application, P: chickweed (chickweed [10]) | O: lambsquarters, herbicidal effect grade (lambsquarters [11]) | Herbicidal effect, C: oval-leafed pondweed (oval-leafed pondweed) | Herbicidal effect, B: Japanese bulrush (Japanese bulrush) | J: blackgrass, herbicidal effect grade (blackgrass [12]) | Herbicidal effect by foliage application, I: wild oat (wild oat [13]) | R: persian speedwell, herbicidal effect grade (persian speedwell [14]) | G: green foxtail, herbicidal effect grade (green foxtail [15]) | H: barnyard grass, herbicidal effect grade (barnyard grass [16]) | K: Italian ryegrass, herbicidal effect grade (Italian ryegrass [17]) | further results |
| --- | --- | --- | --- | --- | --- | --- | --- | --- | --- | --- | --- | --- | --- | --- | --- | --- | --- | --- | --- | --- | --- |
| CCCC(=O)Oc1c(C)nn(C)c(=O)c1-c1c(-c2ccc(COC)cc2)sc2cc(F)c(F)cc12 [5-010] | 2 (Herbicidal rate of 20% or more and less than 40%) | 0 (Herbicidal rate of 5% or less (almost no effect)) | 0 (Herbicidal rate of 5% or less (almost no effect)) | 4 (Herbicidal rate of 70% or more and less than 90%) | 0 (Herbicidal rate of 5% or less (almost no effect)) | 5 (Herbicidal rate of 90% or more (almost completely withered)) | 4 (Herbicidal rate of 70% or more and less than 90%) | 3 (Herbicidal rate of 40% or more and less than 70%) | 0 (Herbicidal rate of 5% or less (almost no effect)) | 2 (Herbicidal rate of 20% or more and less than 40%) | 3 (Herbicidal rate of 40% or more and less than 70%) | 3 (Herbicidal rate of 40% or more and less than 70%) | 0 (Herbicidal rate of 5% or less (almost no effect)) | 2 (Herbicidal rate of 20% or more and less than 40%) | 0 (Herbicidal rate of 5% or less (almost no effect)) | 0 (Herbicidal rate of 5% or less (almost no effect)) | 2 (Herbicidal rate of 20% or more and less than 40%) | 0 (Herbicidal rate of 5% or less (almost no effect)) | 2 (Herbicidal rate of 20% or more and less than 40%) | 0 (Herbicidal rate of 5% or less (almost no effect)) | herbicidal effect on Chinese sprangletop (D) (Chinese sprangletop): 3 (Herbicidal rate of 40% or more and less than 70%); Herbicidal effect by foliage application, Q: false cleavers (false cleavers): 5 (Herbicidal rate of 90% or more (almost completely withered)); N: redroot pigweed, herbicidal effect grade (redroot pigweed [18]): 3 (Herbicidal rate of 40% or more and less than 70%); P: chickweed, herbicidal effect grade (chickweed [19]): 0 (Herbicidal rate of 5% or less (almost no effect)); Herbicidal effect, A: late watergrass (late watergrass): 0 (Herbicidal rate of 5% or less (almost no effect)); F: southern crabgrass, herbicidal effect grade (southern crabgrass [20]): 0 (Herbicidal rate of 5% or less (almost no effect)); Herbicidal effect by foliage application, O: lambsquarters (lambsquarters [21]): 3 (Herbicidal rate of 40% or more and less than 70%); Herbicidal effect by foliage application, H: barnyard grass (barnyard grass [22]): 1 (Herbicidal rate of 5% or more and less than 20%); Herbicidal effect by foliage application, F: southern crabgrass (southern crabgrass [23]): 0 (Herbicidal rate of 5% or less (almost no effect)); L: windgrass, herbicidal effect grade (windgrass [24]): 0 (Herbicidal rate of 5% or less (almost no effect)); Herbicidal effect by foliage application, K: Italian ryegrass (Italian ryegrass [25]): 1 (Herbicidal rate of 5% or more and less than 20%) |
| COc1ccccc1-c1sc2cc(F)c(F)cc2c1-c1c(O)c(C)nn(C)c1=O [5-011] | 5 (Herbicidal rate of 90% or more (almost completely withered)) | 0 (Herbicidal rate of 5% or less (almost no effect)) | 5 (Herbicidal rate of 90% or more (almost completely withered)) | 5 (Herbicidal rate of 90% or more (almost completely withered)) | 3 (Herbicidal rate of 40% or more and less than 70%) | 5 (Herbicidal rate of 90% or more (almost completely withered)) | 5 (Herbicidal rate of 90% or more (almost completely withered)) | 5 (Herbicidal rate of 90% or more (almost completely withered)) | 4 (Herbicidal rate of 70% or more and less than 90%) | 5 (Herbicidal rate of 90% or more (almost completely withered)) | 5 (Herbicidal rate of 90% or more (almost completely withered)) | 5 (Herbicidal rate of 90% or more (almost completely withered)) | 0 (Herbicidal rate of 5% or less (almost no effect)) | 2 (Herbicidal rate of 20% or more and less than 40%) | 3 (Herbicidal rate of 40% or more and less than 70%) | 3 (Herbicidal rate of 40% or more and less than 70%) | 5 (Herbicidal rate of 90% or more (almost completely withered)) | 4 (Herbicidal rate of 70% or more and less than 90%) | 4 (Herbicidal rate of 70% or more and less than 90%) | 3 (Herbicidal rate of 40% or more and less than 70%) | herbicidal effect on Chinese sprangletop (D) (Chinese sprangletop): 3 (Herbicidal rate of 40% or more and less than 70%); Herbicidal effect by foliage application, Q: false cleavers (false cleavers): 5 (Herbicidal rate of 90% or more (almost completely withered)); N: redroot pigweed, herbicidal effect grade (redroot pigweed [18]): 5 (Herbicidal rate of 90% or more (almost completely withered)); P: chickweed, herbicidal effect grade (chickweed [19]): 3 (Herbicidal rate of 40% or more and less than 70%); Herbicidal effect, A: late watergrass (late watergrass): 2 (Herbicidal rate of 20% or more and less than 40%); F: southern crabgrass, herbicidal effect grade (southern crabgrass [20]): 3 (Herbicidal rate of 40% or more and less than 70%); Herbicidal effect by foliage application, O: lambsquarters (lambsquarters [21]): 4 (Herbicidal rate of 70% or more and less than 90%); Herbicidal effect by foliage application, H: barnyard grass (barnyard grass [22]): 4 (Herbicidal rate of 70% or more and less than 90%); Herbicidal effect by foliage application, F: southern crabgrass (southern crabgrass [23]): 2 (Herbicidal rate of 20% or more and less than 40%); L: windgrass, herbicidal effect grade (windgrass [24]): 4 (Herbicidal rate of 70% or more and less than 90%); Herbicidal effect by foliage application, K: Italian ryegrass (Italian ryegrass [25]): 3 (Herbicidal rate of 40% or more and less than 70%) |

Reference: US20230085307A1, “PYRIDAZINONE COMPOUND AND HERBICIDE” (NISSAN CHEMICAL CORPORATION, priority 2019, published 2023)
